Where two headings read alike, the source gives them in different places.
How the values were obtained:
[1] = target: HDAC4 (Homo sapiens, UniProt P56524); experiment: HDAC4 fluorogenic activity assay (BPS Bioscience kit); details: for IC50 fold lower for HDAC4 than HDAC3: selectivity HDAC4 over HDAC3 from IC50 values; for relative percent activity of HDAC4 (activity retained): 100 μM compound, compared to absence of inhibitor
Procedure: (§2) HDAC3 and HDAC4 activity assays were performed using fluorogenic assay kits obtained from BPS Bioscience (San Diego, CA, USA) by following the protocol that is supplied by the manufacturer. Briefly, purified enzyme (40 pg/μL HDAC3 or 1.2 pg/μL HDAC4) in a total of 50 μL buffer containing 0.1% BSA was incubated with substrate (20 μM for HDAC3 and 2 μM for HDAC4) at 37 °C for 30 min in a 96-well plate. A fluorescence developer (50 μL) was added and the plate was incubated at room temperature for a further 15 min. The activity of the enzymes in the absence and presence of compounds was measured on a BioTek Cytation 5 plate reader, exciting the samples at 350 nm and measuring emission at 450 nm. Compounds were prepared as 10 mM stocks in DMSO, diluted to 1 mM in 20 mM NaHEPES, 150 mM NaCl, pH 7.4 buffer, and were screened at 100 μM in the assays at least in duplicate. A positive control with 1% DMSO added in lieu of an inhibitor and a negative control without enzyme were also prepared in each assay plate. The negative control was subtracted from all fluorescence values, while the positive control was used as the reference for 100% activity of the enzyme.

[2] = target: HDAC3 (Homo sapiens, UniProt O15379); experiment: HDAC3 fluorogenic activity assay (BPS Bioscience kit); details: for relative percent activity of HDAC3 (activity retained) / decrease of HDAC3 activity: 100 μM compound; for relative percent activity of HDAC3 (activity retained): compared to absence of inhibitor
Procedure: as §2

[3] = system: transitional urothelial carcinoma SW780 cell line; experiment: MTT cell viability assay, SW780; details: Homo sapiens; for IC50 / viability at 100 µM: SW780, 48 h; for IC50: read-out: IC50 (cell viability); for viability at 100 µM: read-out: Relative cell viability
Procedure: (§1) Cell viability assays were determined using Methyl Thiazolyl Tetrazolium (MTT) assay (Travigen, Gaithersburg, MD, USA). A total of 5 × 10^3 SW780 (human transitional urinary bladder cancer cell line) or 1 × 10^4 (human triple-negative breast cancer cell line MDA-MB231, American Type Culture Collection [ATCC], Rockville, MD, USA) in 100 µL of culture media were seeded to each well of 96-well culture plates. These cell lines were chosen based on previous work. The MDA-MB231 and SW780 cell lines were cultured in Dulbecco’s modified Eagle’s medium (DMEM) with 10% or 5% heat-inactivated fetal bovine serum, respectively, 100 U/mL penicillin, and 100 µg/mL streptomycin. Cultures were maintained in 5% CO2 at 37 °C and subcultured every 2–3 days. At 24 h after seeding, cells were treated with various concentrations of potential HDAC inhibiting compounds for 48 h (100 µM for initial screening, […], 1, 10, 100, 250, and 500 µM for the dose–response experiment). Subsequently, 10 µL of MTT reagent was added to each well and incubated for 4 h, followed by the addition of 100 µL of detergent reagent. The plate was incubated overnight. The reduced MTT reagent in cultures was measured at 570 nm by using an ELISA reader (Bio-Tek, Winooski, VT, USA). The IC50 for each compound was calculated from fitted nonlinear regression dose–response curves.

[4] = system: human breast carcinoma MDA-MB231 cell line; experiment: MTT cell viability assay, MDA-MB231; details: for IC50 / viability at 100 µM: MDA-MB-231, 48 h; for IC50: read-out: IC50 (cell viability); for viability at 100 µM: read-out: Relative cell viability
Procedure: as §1

[5] = read-out: IC50 (μM) for HDAC4, highest concentration 500 μM
[6] = read-out: IC50 (μM) for HDAC3, highest concentration 500 μM

Sequence of HDAC4 (P56524 whole entry): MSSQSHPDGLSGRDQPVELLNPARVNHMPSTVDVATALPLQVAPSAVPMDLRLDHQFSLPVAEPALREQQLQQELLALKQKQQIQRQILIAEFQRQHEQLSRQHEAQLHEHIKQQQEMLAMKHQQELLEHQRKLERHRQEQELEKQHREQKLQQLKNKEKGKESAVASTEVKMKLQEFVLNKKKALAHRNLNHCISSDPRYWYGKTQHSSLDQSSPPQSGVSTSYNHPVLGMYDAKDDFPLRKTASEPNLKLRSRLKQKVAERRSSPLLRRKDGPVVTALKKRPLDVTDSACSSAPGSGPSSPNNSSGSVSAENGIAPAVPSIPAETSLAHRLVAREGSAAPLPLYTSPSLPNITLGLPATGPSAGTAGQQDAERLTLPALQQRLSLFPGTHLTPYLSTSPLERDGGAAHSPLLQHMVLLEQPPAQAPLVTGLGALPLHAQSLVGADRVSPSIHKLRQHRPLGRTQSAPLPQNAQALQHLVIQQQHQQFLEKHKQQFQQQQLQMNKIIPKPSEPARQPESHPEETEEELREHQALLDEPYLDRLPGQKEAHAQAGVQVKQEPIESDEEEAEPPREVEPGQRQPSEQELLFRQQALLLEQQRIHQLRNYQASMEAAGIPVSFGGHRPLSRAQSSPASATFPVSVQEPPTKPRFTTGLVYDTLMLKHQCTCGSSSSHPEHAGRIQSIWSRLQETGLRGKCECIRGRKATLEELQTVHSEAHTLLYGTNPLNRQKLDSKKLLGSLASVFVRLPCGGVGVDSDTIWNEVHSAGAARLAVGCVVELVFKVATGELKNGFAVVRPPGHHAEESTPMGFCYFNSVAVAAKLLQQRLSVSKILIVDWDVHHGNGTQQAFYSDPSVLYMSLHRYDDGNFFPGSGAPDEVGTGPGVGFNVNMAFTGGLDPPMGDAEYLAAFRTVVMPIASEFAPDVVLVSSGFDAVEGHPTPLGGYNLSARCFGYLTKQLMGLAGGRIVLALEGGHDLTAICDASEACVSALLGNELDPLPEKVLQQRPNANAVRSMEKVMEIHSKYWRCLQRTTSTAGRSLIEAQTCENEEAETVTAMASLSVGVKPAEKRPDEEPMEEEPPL
Sequence of HDAC3 (O15379 whole entry): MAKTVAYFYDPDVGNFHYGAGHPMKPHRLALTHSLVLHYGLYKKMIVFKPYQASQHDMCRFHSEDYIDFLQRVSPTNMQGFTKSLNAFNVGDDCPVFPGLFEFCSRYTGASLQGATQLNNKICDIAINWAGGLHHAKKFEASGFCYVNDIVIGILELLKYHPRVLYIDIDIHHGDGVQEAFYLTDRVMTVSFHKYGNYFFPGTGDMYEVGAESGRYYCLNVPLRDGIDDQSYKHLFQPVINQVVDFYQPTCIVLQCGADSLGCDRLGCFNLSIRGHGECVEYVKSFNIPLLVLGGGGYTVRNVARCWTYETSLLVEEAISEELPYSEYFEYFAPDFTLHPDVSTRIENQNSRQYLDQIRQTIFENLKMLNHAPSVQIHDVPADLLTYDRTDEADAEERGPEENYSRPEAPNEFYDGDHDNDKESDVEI
Sequence of HDAC3 (Q9Y618 395-489 partner limits assumed): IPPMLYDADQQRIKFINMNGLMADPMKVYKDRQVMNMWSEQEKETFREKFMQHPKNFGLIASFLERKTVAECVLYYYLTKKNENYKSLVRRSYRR

Row | SMILES | IC50 [2] [µM] | IC50 [3] [µM] | IC50 ([4]; Homo sapiens) [µM] | viability at 100 µM ([4]; Homo sapiens) [%] | relative percent activity of HDAC4 (activity retained) [1] | IC50 [2, 6] [µM] | also measured
1 | COc1cc(C2NC(=O)C(C#N)=C(Nc3cccc(C)c3)S2)ccc1O (centres unmarked) [Compound 319435] | > 500 | – | – | – | – | – | IC50 [1]: 150 ± 50 µM; IC50 fold lower for HDAC4 than HDAC3 [1]: at least 2 fold
2 | CCOC(=O)C(=NO)C1=CSC2=NNC(C)(C)N12 [Compound 299968] | > 500 | 300 ± 17 | 113 ± 19 | < 60 | – | – | IC50 [1]: 250 ± 170 µM; IC50 fold lower for HDAC4 than HDAC3 [1]: at least 2 fold
3 | COc1cccc2c1cc([N+](=O)[O-])c1c(C(=O)O)cc3c(c12)OCO3 [Compound 11926] | > 500 | 223 ± 49 | 126 ± 10 | < 60 | – | – | viability at 100 µM [3]: < 50%; viability at 500 µM ([3]; SW780, read-out: cell viability): 45%; viability at 500 µM ([4]; Homo sapiens, MDA-MB-231, read-out: cell viability): 9%
4 | O=C(Nc1ccc(C2=NCCN2)cc1)c1ccc(Cl)c(C(=O)Nc2ccc(C3=NCCN3)cc2)c1 [Compound 67436] | 9.2 ± 5.2 | 131 ± 26 | 138 ± 23 | < 60 | ≤ 40% | – | viability at 100 µM [3]: < 50%; IC50 [1]: 47 ± 28 µM; relative percent activity of HDAC3 (activity retained) [2]: ≤ 40%; HDAC3 IC50 relative to that for HDAC4 ([2]; selectivity HDAC3 over HDAC4 from IC50 values): five times lower
5 | O=[N+]([O-])c1cc(-c2cccnc2)n[nH]1 [Compound 4135] | – | – | – | – | – | > 500 | IC50 [1, 5]: 410 ± 240 µM
6 | COc1ccc2c(c1)NP(=S)(Oc1ccccc1)N2 (centres unmarked) [Compound 88402] | 210 ± 60 | – | – | – | < 40% | – | IC50 [1]: 100 ± 40 µM; IC50 fold lower for HDAC4 than HDAC3 [1]: at least 2 fold; relative percent activity of HDAC3 (activity retained) [2]: 75%; Relative cell viability ([4]; MDA-MB231, 100 µM compound, 48 h, untreated cells = 100%): did not show activity
7 | NC(=S)NN=Cc1cc(-c2cccc(N)c2)ccn1 [Compound 195327] | > 500 | 89 ± 48 | 37 ± 17 | < 60 | unchanged | – | viability at 100 µM [3]: < 50%; IC50 (μM) for HDAC4 ([1]; highest concentration 500 μM): did not inhibit; decrease of HDAC3 activity [2]: 80%; IC50 (μM) for HDAC3 ([2]; highest concentration 500 μM): no inhibition
8 | O=C(CN1CCOCC1)N1CCOCC1 [Compound 51936] | – | – | – | – | – | > 500 | IC50 [1, 5]: 550 ± 350 µM
9 | CN(C)c1ncnc2c1ncn2-c1ccccc1 [Compound 34488] | – | – | – | – | unchanged | > 500 | decrease of HDAC3 activity [2]: 50%
10 | CCOC(=O)C1C(=O)C(=O)N(C(C)C)C1C(=O)OCC (centres unmarked) [Compound 55172] | – | – | – | – | – | > 500 | –
11 | CCCn1cnc2c(Sc3c([N+](=O)[O-])ncn3C)nc(N)nc21 [Compound 44584] | > 500 | 213 ± 13 | 137 ± 18 | < 60 | unchanged | – | decrease of HDAC3 activity [2]: 60%
12 | NS(=O)(=O)c1ccc(N=Nc2ccc(=O)[nH]c2O)cc1 [Compound 134199] | – | – | – | – | ≤ 40% | 25 ± 7 | IC50 [1, 5]: 33 ± 12 µM; relative percent activity of HDAC3 (activity retained) [2]: ≤ 40%; Relative cell viability ([4]; 100 µM): little potency
13 | CCOC(=O)C(=CNc1ccccc1Cl)C(=O)OCC [Compound 79887] | – | – | – | – | – | > 500 | –
14 | CC12CCC(C(NC(=S)NN)C1=O)C2(C)C (centres unmarked) [Compound 36425] | – | – | – | – | – | > 500 | IC50 [1, 5]: 480 ± 260 µM
